# Tests used:
# [1] = target: T1, METTL3/METTL14 (Homo sapiens, UniProt Q86U44); assay: Inhibition of METTL3/METTL14 (unknown origin); assay type: protein-complex assay
# [2] = target: N6-adenosine-methyltransferase catalytic subunit (Homo sapiens, UniProt Q86U44); assay: Inhibition of METTL3 in human MOLM-13 cells assessed as decrease in cellular m6A mRNA level incubated for 24 hrs by NanoDrop spectrophotometer based LC-MS/MS analysis; assay type: cell-based
# [3] = test system: MOLM-13; assay: Antiproliferative activity against human MOLM-13 cells assessed as inhibition of cell proliferation incubated for 48 hrs by Cell Titer-Glo reagent assay; assay type: functional, cell-based; conditions: MOLM-13, 48 h
# [4] = test system: MOLM-13; assay: Antiproliferative activity against human MOLM-13 cells assessed as inhibition of cell proliferation incubated for 96 hrs by Cell Titer-Glo reagent assay; assay type: functional, cell-based; conditions: MOLM-13, 96 h
# [5] = target: T1, METTL3/METTL14; assay: Inhibition of METTL3/METTL14 (unknown origin) using biotinylated RNA (UCUGGACUAAA-biotin) and 3H-SAM as substrate preincubated for 5 mins followed by substrate addition and measured after 30 mins by scintillation counter analysis; assay type: protein-complex assay
# [6] = target: T1, METTL3/METTL14; assay: Inhibition of METTL3/METTL14 (unknown origin) using RNA 5'-GGACUGGACUGGACU-3' as substrate incubated for 2 hrs by LC-MS/MS analysis; assay type: protein-complex assay
# [7] = target: METTL3/METTL14 (Homo sapiens) (UniProt Q86U44+Q9HCE5); assay: Inhibition of METTL3/METTL14 (unknown origin) at 60 uM relative to control; assay type: protein-complex assay
# [8] = test system: MOLM-13; assay: Antiproliferative activity against human MOLM-13 cells assessed as inhibition of cell proliferation and measured after 7 days by CellTiter-Glo assay; assay type: functional, cell-based; conditions: MOLM-13, 168 h
# [9] = test system: Caov-3 cell line; assay: Antiproliferative activity against human Caov-3 cell line assessed as inhibition of cell proliferation and measured after 7 days by CellTiter-Glo assay; assay type: functional, cell-based; conditions: Caov-3, 168 h
# [10] = test system: Caov-3 cell line; assay: Antiproliferative activity against human Caov-3 cell line assessed as inhibition of cell proliferation incubated for 120 hrs by CellTiter-Glo assay; assay type: functional, cell-based; conditions: Caov-3, 120 h
# [11] = test system: Kasumi 1; assay: Antiproliferative activity against human Kasumi 1 cells assessed as inhibition of cell proliferation incubated for 120 hrs by CellTiter-Glo assay; assay type: functional, cell-based; conditions: Kasumi 1, 120 h
# [12] = target: T1, METTL3/METTL14; assay: Inhibition of full-length His-tagged METTL3/full length FLAG-tagged METTL14 (unknown origin) expressed in baculovirus expression system using synthetic RNA 5'P-uacacucgaucuggacuaaagcugcuc-3' and SAM as substrate preincubated for 10 mins followed by substrate addition and measured after 60 mins by RF/MS analysis
# [13] = target: T1, METTL3/METTL14; assay: Competive inhibition of full length human METTL3/METTL14 expressed in Sf9 cells using single strand RNA 5'-AAGAACCGGACUAAGCU-3' and SAM as substrate incubated for 40 mins by HTRF assay
# [14] = test system: MOLM-13; assay: Antiproliferative activity against human MOLM-13 cells assessed as decrease cell proliferation; assay type: functional, cell-based
# [15] = Selectivity ratio of IC50 for inhibition of METTL3/METTL14 (unknown origin) to IC50 for inhibition of PRMT5/MEP50 (unknown origin)
# [16] = Selectivity ratio of IC50 for inhibition of METTL3/METTL14 (unknown origin) to IC50 for inhibition of FLT3 (unknown origin)
# [17] = test system: NOMO-1; assay: cells; conditions: Homo sapiens, NOMO-1, 168 h
# [18] = test system: EOL1; assay: cells; conditions: Homo sapiens, EOL1, 168 h
# [19] = test system: OCI-AML2; assay: cells; conditions: Homo sapiens, OCI-AML2, 168 h
# [20] = test system: OCI-AML-3; assay: cells; conditions: Homo sapiens, OCI-AML-3, 168 h
# [21] = test system: HL-60; assay: cells; conditions: Homo sapiens, HL-60, 168 h
# [22] = test system: Kasumi 1; assay: cells; conditions: Homo sapiens, Kasumi 1, 168 h
# [23] = test system: MOLM-13; assay: Antiproliferative activity against human MOLM-13 cells assessed as cell growth inhibition; assay type: functional
# [24] = test system: THP-1; assay: Antiproliferative activity against human THP-1 cells assessed as cell growth inhibition; assay type: functional
# [25] = test system: MOLM-14; assay: Antiproliferative activity against human MOLM-14 cells assessed as cell growth inhibition; assay type: functional
# [26] = test system: HL-60; assay: Antiproliferative activity against human HL-60 cells assessed as cell growth inhibition; assay type: functional
# [27] = target: T1, METTL3/METTL14
smiles,measurement,setting,value
O=C(O)c1ccccc1OCCc1cn(C(c2ccccc2)c2ccccc2)c2ccc(-c3ccc(F)cc3)cc12,IC50,[1],6000 nM
Cn1ccc(-c2cn([C@@H]3O[C@H](COc4ccc5ccc(N6CCC6)nc5c4)[C@@H](O)[C@@H]3F)c3ncnc(N)c23)n1,IC50,[2],< 1000 nM
same,IC50,[3],< 10000 nM
same,IC50,[4],< 10000 nM
same,IC50,[5],< 10 nM
O=c1cc(-c2ccc(O)c(O)c2)oc2cc(O)cc(O)c12 [LUTEOLIN],IC50,[6],6230 nM
CC1=NN(c2ccc(C)c(C)c2)C(=O)/C1=N\Nc1cccc(-c2ccccc2)c1O,inhibition,[7],23.3%
COc1ccc2[nH]ncc2c1-c1cn(Cc2cn3cc(CNCC4CCC4)ccc3n2)nn1,IC50,[8],1170 nM
same,IC50,[9],558 nM
Cn1ccc(-c2cn([C@H]3C[C@H](O)[C@@H](COc4ccc5ccc(N6CCC6)nc5c4)O3)c3ncnc(N)c23)n1,IC50,[2],< 1000 nM
same,IC50,[3],< 10000 nM
same,IC50,[4],< 10000 nM
same,IC50,[5],< 10 nM
O=C(O)c1ccccc1OCCc1cn(C(c2ccccc2)c2ccccc2)c2ccc(Cl)cc12,IC50,[1],13000 nM
COc1cc(-c2cn(Cc3cn4cc(CNCC56CC(F)(C5)C6)ccc4n3)nn2)c2cncn2c1,IC50,[10],305 nM
same,IC50,[11],1150 nM
Clc1cc(-c2cn(Cc3cn4cc(CNCC5CCC5)ccc4n3)nn2)c2cn[nH]c2c1,IC50,[12],4.35 nM
COc1cc(-c2cn(Cc3cn4cc(CNCC5CCC5)ccc4n3)nn2)c2cn[nH]c2c1,IC50,[12],3.63 nM
Nc1ncnc2c1ncn2C[C@H]1OC[C@@H](O)[C@@H](O)[C@H]1O,IC50,[13],> 250000 nM
O=C(NCc1cn2cc(CNCC34CC(F)(C3)C4)ccc2n1)c1cc(=O)n2ccccc2n1,IC50,[8],657 nM
same,IC50,[9],248 nM
CCc1cc(N(C)CCOC)c2ccc(CCc3cncc(-n4cc(-c5ccn(C)n5)c5c(N)ncnc54)c3)cc2n1,IC50,[2],< 1000 nM
same,IC50,[4],< 10000 nM
same,IC50,[5],< 10 nM
O=C(O)c1ccccc1OCCc1cn(-c2ccc(-c3ccccc3)cc2)c2ccc(-c3ccc(F)cc3)cc12,IC50,[1],2950 nM
same,EC50,[14],32500 nM
O=C(O)c1ccccc1OCCc1cn(C(c2ccccc2)c2ccccc2)c2ccc(-c3ccccc3)cc12,IC50,[1],8630 nM
"Nc1ncnc2c1ncn2[C@@H]1O[C@H](C(=O)NCC2CCNCC2)[C@@H](O)[C@H]1O (single isomer, unassigned)",IC50,[13],> 250000 nM
CCc1cc(NCCOC)c2ccc(CCc3cncc(-n4cc(-c5ccn(C)n5)c5c(N)ncnc54)c3)cc2n1,IC50,[2],< 1000 nM
same,IC50,[4],< 10000 nM
same,IC50,[5],< 10 nM
"Nc1ncnc2c1ccn2[C@@H]1C[C@H](c2ccc3cc(CN4CCC5(CCC5)C4)[nH]c3c2)[C@@H](O)[C@H]1O (single isomer, unassigned)",IC50,[10],250 nM
same,IC50,[11],950 nM
COc1cc(-c2cn(Cc3cn4cc(CNCC5CCC5)ccc4n3)nn2)c2cncn2c1,IC50,[10],103 nM
same,IC50,[11],316 nM
Cn1ccc(-c2cn([C@@H]3O[C@H](C(=O)Nc4ccc5ccc(N6CCC6)nc5c4)[C@@H](O)[C@@H]3F)c3ncnc(N)c23)n1,Ratio IC50,[15],> 100
same,Ratio IC50,[16],> 100
same,IC50,[5],< 10 nM
Cc1c(CCOc2ccc(C(=O)O)cc2)c2cc(Cl)ccc2n1C(c1ccccc1)c1ccccc1,IC50,[1],17300 nM
O=C(O)[C@H]1O[C@@H](Oc2cc3oc(-c4ccc(O)cc4)cc(=O)c3c(O)c2O)[C@H](O)[C@@H](O)[C@@H]1O [SCUTELLARIN],IC50,[6],19200 nM
CNc1ccc2ccc(OCc3cncc(-n4cc([C@@H]5CCCO5)c5c(N)ncnc54)c3)cc2n1,IC50,[2],< 1000 nM
same,IC50,[4],< 10000 nM
same,IC50,[5],< 10 nM
Nc1ncnc2c1c(Br)cn2[C@@H]1C[C@H](c2ccc3cc(CNCC45CC(F)(C4)C5)[nH]c3c2)[C@@H](O)[C@H]1O,IC50,[12],< 6 nM
same,IC50,[10],250 nM
same,IC50,[11],950 nM
O=C(O)c1ccccc1OCCc1cn(-c2cccc(-c3ccccc3)c2)c2ccc(-c3ccc(F)cc3)cc12,IC50,[1],2740 nM
same,EC50,[14],29900 nM
Cn1ccc(-c2cn([C@@H]3O[C@H](COc4ccc5ccc(NC6CCC6)nc5c4)[C@@H](O)[C@@H]3F)c3ncnc(N)c23)n1,IC50,[2],< 1000 nM
same,IC50,[3],< 10000 nM
same,IC50,[4],< 10000 nM
same,IC50,[5],< 10 nM
CNc1ccc2ccc(OC[C@H]3O[C@@H](n4cc([C@@H]5CCCO5)c5c(N)ncnc54)[C@@H](F)[C@@H]3O)cc2n1,IC50,[2],< 1000 nM
same,IC50,[3],< 10000 nM
same,IC50,[4],< 10000 nM
same,IC50,[5],< 10 nM
O=C(O)c1ccccc1OCCc1cn(-c2ccc(-c3ccc(Cl)cc3)cc2)c2ccc(-c3ccc(F)cc3)cc12,IC50,[1],3130 nM
same,EC50,[14],26900 nM
COC(=O)c1cccc(-c2cccc(N/N=C3\C(=O)N(c4ccc(C)c(C)c4)N=C3C)c2O)c1,inhibition,[7],23.7%
O=C(NCc1cn2cc(CNCC3CCCCC3)ccc2n1)c1cc(=O)n2ccccc2n1,IC50,[8],1040 nM
same,IC50,[17],600 nM
same,IC50,[18],1940 nM
same,IC50,[19],1780 nM
same,IC50,[20],3200 nM
same,IC50,[21],10300 nM
same,IC50,[22],700 nM
Nc1ncnc2c1c(-n1cccn1)cn2[C@@H]1O[C@H](COc2ccc3ccc(N4CCC4)nc3c2)[C@@H](O)[C@@H]1F,IC50,[3],< 10000 nM
same,IC50,[4],< 10000 nM
same,IC50,[5],< 10 nM
Nc1ncnc2c1c(Cl)cn2[C@@H]1C[C@H](c2ccc3cc(CNCC45CC(F)(C4)C5)[nH]c3c2)[C@@H](O)[C@H]1O,IC50,[10],250 nM
same,IC50,[11],950 nM
Cc1coc(-c2cn([C@@H]3O[C@H](COc4ccc5ccc(N6CCC6)nc5c4)[C@@H](O)[C@@H]3F)c3ncnc(N)c23)n1,IC50,[3],< 10000 nM
same,IC50,[4],< 10000 nM
same,IC50,[5],< 10 nM
CNc1ccc2ccc(CCc3cncc(-n4cc(-c5ccn(C)n5)c5c(N)ncnc54)c3)cc2n1,IC50,[2],< 1000 nM
same,IC50,[3],< 1000 nM
same,IC50,[5],< 10 nM
"Nc1ncnc2c1c(Br)cn2[C@@H]1C[C@H](c2ccc3cc(CN4CCC5(CCC5)C4)[nH]c3c2)[C@@H](O)[C@H]1O (single isomer, unassigned)",IC50,[10],250 nM
same,IC50,[11],950 nM
COc1cc(-c2cn(Cc3cn4cc(CNCC56CC(C5)C6)ccc4n3)nn2)c2cncn2c1,IC50,[10],110 nM
same,IC50,[11],419 nM
Nc1ncnc2c1c(-n1cccn1)cn2[C@H]1C[C@H](O)[C@@H](COc2ccc3ccc(N4CCC4)nc3c2)O1,IC50,[2],< 1000 nM
same,IC50,[3],< 10000 nM
same,IC50,[4],< 10000 nM
same,IC50,[5],< 10 nM
O=C(O)c1ccccc1OCCc1cn(-c2ccc(-c3c(Cl)cccc3Cl)cc2)c2ccc(-c3ccc(F)cc3)cc12,GI50,[23],14600 nM
same,GI50,[24],21600 nM
same,GI50,[25],13100 nM
same,GI50,[26],15500 nM
same,EC50,[14],14600 nM
same,IC50,[27],4920 nM
